In PubChem BioAssay AID248 (DTP/NCI, 2004):
Where “and” joins values, the source holds several entries; their conditions need not be identical. Identical values can stand only once. Inconclusive results and toxic doses are left out. Cut-off read from the data, not from the text of the source: active = T/C of 150% or more; inactive = T/C below 125%.

System: L1210 leukemia ip in BDF1 mice, survival T/C
Experiment: NCI In Vivo Anticancer Drug Screen. Data for tumor model L1210 Leukemia (intraperitoneal) in B6D2F1 (BDF1) mice
Conditions: endpoint: mean survival time, higher = longer survival
Procedure, shortened: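 Read-out is survival time, reported as the treated-group measurement over the vehicle-control measurement.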

[1] = dose: 100.0 mg/kg/injection, schedule: Q01DX001 (ip), vehicle: saline
[2] = dose: 200.0 mg/kg/injection, schedule: Q01DX001 (ip), vehicle: saline
[3] = dose: 100.0 mg/kg/injection, schedule: Q04DX002 (ip), vehicle: saline
[4] = dose: 200.0 mg/kg/injection, schedule: Q04DX002 (ip), vehicle: saline
[5] = dose: 400.0 mg/kg/injection, schedule: Q04DX002 (ip), vehicle: saline
[6] = dose: 100.0 mg/kg/injection, schedule: Q04DX002 (ip), vehicle: Klucel (hydroxypropylcellulose) (HPC)
[7] = dose: 200.0 mg/kg/injection, schedule: Q04DX002 (ip), vehicle: Klucel (hydroxypropylcellulose) (HPC)
[8] = dose: 400.0 mg/kg/injection, schedule: Q04DX002 (ip), vehicle: Klucel (hydroxypropylcellulose) (HPC)
[9] = dose: 100.0 mg/kg/injection, schedule: Q01DX009 (ip), vehicle: Klucel (hydroxypropylcellulose) (HPC)
[10] = dose: 200.0 mg/kg/injection, schedule: Q01DX009 (ip), vehicle: Klucel (hydroxypropylcellulose) (HPC)

Measured: T/C

N#CC1CN2c3ccc4ccccc4c3CCC2C1=O (centres undefined)
inactive: dose: 50.0 mg/kg/injection, schedule: Q01DX001 (ip), vehicle: saline 106 % of control | [1] 104 % of control | [2] 104 % of control

CCCOCCOCCOC(C)Oc1ccc(C(=O)OC)cc1 (centres undefined)
inactive: [3] 101 % of control | [4] 101 % of control | [5] 99 % of control

O=C(Nc1ccc(N=C(NC2CCCCC2)c2ccccc2)cc1)c1ccc(C(=O)Nc2ccc(N=C(NC3CCCCC3)c3ccccc3)cc2)cc1
inactive: dose: 15.0 mg/kg/injection, schedule: Q01DX Z (ip), vehicle: carboxymethylcellulose (CMC) 101 % of control | dose: 30.0 mg/kg/injection, schedule: Q01DX Z (ip), vehicle: carboxymethylcellulose (CMC) 97 % of control | dose: 60.0 mg/kg/injection, schedule: Q01DX Z (ip), vehicle: carboxymethylcellulose (CMC) 101 % of control | dose: 120.0 mg/kg/injection, schedule: Q01DX Z (ip), vehicle: carboxymethylcellulose (CMC) 97 % of control

CC(C)(C)C1CCC(Cl)C(O)C1 (centres undefined)
inactive: dose: 100.0 mg/kg/injection, schedule: Q01DX009 (ip), vehicle: saline 104 % of control | dose: 200.0 mg/kg/injection, schedule: Q01DX009 (ip), vehicle: saline 100 % of control

O=C(Oc1ccc(Cl)cc1Cl)c1ccc([N+](=O)[O-])cc1
inactive: [6] 93 % of control | [7] 97 % of control | [8] 87 % of control

NS(=O)(=O)c1ccc(S(=O)(=O)N2CCCCC2)cc1
inactive: [9] 90 % of control | [10] 96 % of control

O=c1cc(O)c2ccccc2o1
inactive: dose: 50.0 mg/kg/injection, schedule: Q01DX009 (ip), vehicle: Klucel (hydroxypropylcellulose) (HPC) 104 % of control | [9] 93 % of control | [10] 90 % of control

CC1(C)C(=O)C2CCC1C2 (centres undefined)
inactive: [6] 90 % of control | [7] 87 % of control | [8] 103 % of control

COc1ccc2c(c1OC)C1C3CC=CC3C2C2=[N+]1CCc1cc3c(cc12)OCO3 (centres undefined)
inactive: dose: 1.56 mg/kg/injection, schedule: Q01DX009 (ip), vehicle: saline 102 % of control | dose: 3.12 mg/kg/injection, schedule: Q01DX009 (ip), vehicle: saline 93 % of control | dose: 6.25 mg/kg/injection, schedule: Q01DX009 (ip), vehicle: saline 98 % of control | dose: 12.5 mg/kg/injection, schedule: Q01DX009 (ip), vehicle: saline 113 % of control

CCCCSC(C)=N
inactive: [3] 97 % of control | [4] 105 % of control | [5] 97 % of control

c1ncc2[nH]cnc2n1
inactive: dose: 27.33 mg/kg/injection, schedule: Q01DX Z (ip), vehicle: carboxymethylcellulose (CMC) 96 % of control | dose: 54.67 mg/kg/injection, schedule: Q01DX Z (ip), vehicle: carboxymethylcellulose (CMC) 96 % of control | dose: 109.35 mg/kg/injection, schedule: Q01DX Z (ip), vehicle: carboxymethylcellulose (CMC) 108 % of control | dose: 218.7 mg/kg/injection, schedule: Q01DX Z (ip), vehicle: carboxymethylcellulose (CMC) 98 % of control

CC1(C)CCOC(C2OCCC(C)(C)O2)O1 (centres undefined)
inactive: dose: 50.0 mg/kg/injection, schedule: Q01DX009 (ip), vehicle: acetone 113 % of control | dose: 100.0 mg/kg/injection, schedule: Q01DX009 (ip), vehicle: acetone 93 % of control | dose: 200.0 mg/kg/injection, schedule: Q01DX009 (ip), vehicle: acetone 98 % of control

COc1ccc(NC(=O)Oc2cccc(C(F)(F)F)c2)c(Cl)c1
inactive: dose: 100.0 mg/kg/injection, schedule: Q01DX009 (ip), vehicle: saline with Tween-80 96 % of control | dose: 200.0 mg/kg/injection, schedule: Q01DX009 (ip), vehicle: saline with Tween-80 97 % of control | dose: 400.0 mg/kg/injection, schedule: Q01DX009 (ip), vehicle: saline with Tween-80 94 % of control

O=C(O)c1ccc(CCCCBr)cc1
inactive: [6] 96 % of control | [7] 100 % of control | [8] 96 % of control

N=C(N)c1cccc(NC(=O)c2ccc(C(=O)Nc3cccc(C(=N)N)c3)c([N+](=O)[O-])c2)c1
inactive: dose: 1.0 mg/kg/injection, schedule: Q01DX015 (ip), vehicle: water 96 % of control | dose: 2.0 mg/kg/injection, schedule: Q01DX015 (ip), vehicle: water 96 % of control | dose: 4.0 mg/kg/injection, schedule: Q01DX015 (ip), vehicle: water 102 % of control | dose: 8.0 mg/kg/injection, schedule: Q01DX015 (ip), vehicle: water 102 % of control and 109 % of control | dose: 16.0 mg/kg/injection, schedule: Q01DX015 (ip), vehicle: water 115 % of control

CCOc1ccc([N+](=O)[O-])cn1
inactive: [9] 101 % of control | dose: 100.0 mg/kg/injection, schedule: Q04DX003 (ip), vehicle: Klucel (hydroxypropylcellulose) (HPC) 93 % of control | [10] 102 % of control | dose: 200.0 mg/kg/injection, schedule: Q04DX003 (ip), vehicle: Klucel (hydroxypropylcellulose) (HPC) 104 % of control | dose: 400.0 mg/kg/injection, schedule: Q01DX009 (ip), vehicle: Klucel (hydroxypropylcellulose) (HPC) 106 % of control | dose: 400.0 mg/kg/injection, schedule: Q04DX003 (ip), vehicle: Klucel (hydroxypropylcellulose) (HPC) 93 % of control

COc1ccc(/C=N/n2c3ccccc3c3ccccc32)cc1OCCN(C)C
inactive: dose: 3.12 mg/kg/injection, schedule: Q01DX009 (ip), vehicle: Klucel (hydroxypropylcellulose) (HPC) 96 % of control | dose: 6.25 mg/kg/injection, schedule: Q01DX009 (ip), vehicle: Klucel (hydroxypropylcellulose) (HPC) 101 % of control | dose: 12.5 mg/kg/injection, schedule: Q01DX009 (ip), vehicle: Klucel (hydroxypropylcellulose) (HPC) 97 % of control | dose: 25.0 mg/kg/injection, schedule: Q01DX009 (ip), vehicle: Klucel (hydroxypropylcellulose) (HPC) 102 % of control | dose: 25.0 mg/kg/injection, schedule: Q04DX003 (ip), vehicle: Klucel (hydroxypropylcellulose) (HPC) 98 % of control | dose: 50.0 mg/kg/injection, schedule: Q04DX003 (ip), vehicle: Klucel (hydroxypropylcellulose) (HPC) 96 % of control

Cc1cc(O)c(C(=O)/C=C/c2ccccc2)c(=O)[nH]1
inactive: [1] 86 % of control | [2] 96 % of control | dose: 400.0 mg/kg/injection, schedule: Q01DX001 (ip), vehicle: saline 92 % of control

CCCCCCc1c(N)nc(N)[nH]c1=O
inactive: dose: 100.0 mg/kg/injection, schedule: Q01DX001 (ip), vehicle: saline with Tween-80 98 % of control | dose: 200.0 mg/kg/injection, schedule: Q01DX001 (ip), vehicle: saline with Tween-80 89 % of control | dose: 400.0 mg/kg/injection, schedule: Q01DX001 (ip), vehicle: saline with Tween-80 98 % of control

CN1CN(c2ccccc2)C2(CCN(CCCC3Cc4ccccc4O3)CC2)C1=O (centres undefined)
inactive: dose: 12.0 mg/kg/injection, schedule: Q01DX001 (ip), vehicle: Klucel (hydroxypropylcellulose) (HPC) 95 % of control | dose: 25.0 mg/kg/injection, schedule: Q01DX001 (ip), vehicle: Klucel (hydroxypropylcellulose) (HPC) 98 % of control | dose: 50.0 mg/kg/injection, schedule: Q01DX001 (ip), vehicle: Klucel (hydroxypropylcellulose) (HPC) 96 % of control

O=C1CCCc2c1[nH]c1ccccc21
inactive: dose: 100.0 mg/kg/injection, schedule: Q04DX003 (ip), vehicle: saline with Tween-80 97 % of control | dose: 200.0 mg/kg/injection, schedule: Q04DX003 (ip), vehicle: saline with Tween-80 98 % of control | dose: 400.0 mg/kg/injection, schedule: Q04DX003 (ip), vehicle: saline with Tween-80 98 % of control

C[N+](C)(C)Cn1nnc2ccccc21
inactive: dose: 75.0 mg/kg/injection, schedule: Q01DX001 (ip), vehicle: saline 105 % of control | dose: 150.0 mg/kg/injection, schedule: Q01DX001 (ip), vehicle: saline 108 % of control
